Results on 1 molecule are retold here after ChEMBL document CHEMBL1124377, “Potent and prolonged acting cyclic lactam analogues of alpha-melanotropin: design based on molecular dynamics” (J Med Chem, 1989).

The subject of assay [1] is Melanocyte-stimulating hormone receptor (Anolis carolinensis). Kind of assay: […] potency against Anolis carolinensis using lizard skin bioassay; effect did not continue after the removal of the compound.
Assay [2] deals with Melanocyte-stimulating hormone receptor (Rana pipiens). Kind of assay: […] potency against Rana pipiens using frog skin bioassay; effect did not continue after the removal of the compound.

For `CCCC[C@H](NC(C)=O)C(=O)N[C@H]1CC(=O)NCCC[C@@H](C(N)=O)NC(=O)[C@H](Cc2c[nH]c3ccccc23)NC(=O)[C@H](CCCN=C(N)N)NC(=O)[C@@H](Cc2ccccc2)NC(=O)[C@H](Cc2cnc[nH]2)NC1=O`, the Relative potency in assay [1] amounted to 20; in assay [2], 1.
